Measured values as given in patent US20110027325A1, “ORALLY-ADMINISTERED AGENT” (Lintec Corporation, priority 2008, published 2011).

Assay: Viscosity of aqueous solution, E-type viscometer
Format: physicochemical
Details: 37° C.
Description: Tables 1 and 2 shown the constituent materials of the respective layers of the orally-administered agents obtained in the respective Examples and the respective Comparative Examples and the contents thereof. […] Furthermore, the viscosity of the water absorption promoter in the Table 1 and the viscosity of the antiadhesive agent in the Table 2 denote a viscosity at 37° C. of an aqueous solution of 5 mass % of the water absorption promoter and the antiadhesive agent, respectively. Each viscosity was measured with an E-type viscometer (a product of Tokimec, Inc.).

In the case of `OC[C@@H](O)[C@@H](O)[C@H](O)[C@H](O)CO` [Man, mannitol], the “Viscosity of antiadhesive agent” value (aqueous solution of 5 mass % of the antiadhesive agent) was 0.87 mPa · s and the “Viscosity of water absorption promoter” value (aqueous solution of 5 mass % of the water absorption promoter) was 0.87 mPa · s.
